Reference: paper PMC6920806, “Synthesis of β-D-galactopyranoside-Presenting Glycoclusters, Investigation of Their Interactions with Pseudomonas aeruginosa Lectin A (PA-IL) and Evaluation of Their Anti-Adhesion Potential” (Biomolecules, 2019)

Tested on: adhesion of P. aeruginosa (ST 1763) to epithelial bronchial cells (CuFi-1)
Experiment: Ex vivo bacterial adherence assay, combination with compound 14
Assay type: cell-based, Pseudomonas aeruginosa
Conditions: 2 mM of the compound with compound 14 (250 μM); relative to untreated control
Method: Epithelial CuFi-1 cells (an immortalized epithelial cell line derived from cystic fibrosis human lungs, ATCC, Kielpin, Poland) were labelled with PKH67 (Fluorescent Cell Linker Kit, Sigma-Aldrich, St. Louis, MO, USA), a green fluorescent membrane marker, as follows. An aliquot of cell suspension containing 7 × 10^6 cells was washed with PBS buffer and centrifuged (100× g for 5 min). The cell pellet was resuspended in 250 µL of Diluent C (Fluorescent Cell Linker Kit, Sigma-Aldrich, St. Louis, MO, USA). Immediately, an equal volume of 8 µM PKH67 in Diluent C (2 µL of PKH67 in 248 µL of Diluent C) was added to the cell suspension. […]
Epithelial cells CuFi-1 stained with PKH67 were seeded at 8.4 × 10^4 cells/well onto 96-well plates (CellBIND® 96-well Flat Clear Bottom Black Polystyrene Microplates, Corning Incorporated, Corning, NY, USA) and incubated for 42–45 h at 37 °C, 5% CO2 to form a confluent monolayer and regenerate. […] The fluorescence of adhered P. aeruginosa cells (Ex 522 nm, Em 569 nm for PKH26) on epithelial cells (Ex 470 nm, Em 505 for PKH67) was quantified using the spectrofluorometer Tecan Infinite M200 Pro (Tecan Group Ltd., Männedorf, Switzerland). Results were expressed as a relative fluorescence ratio of P. aeruginosa/CuFi-1. […]

Structure (SMILES)	P. aeruginosa adhesion, mixture with compound 14
OC[C@H]1O[C@@H](OCc2cn(CCn3cc(COCC(COCc4cn(CCn5cc(CO[C@@H]6O[C@H](CO)[C@H](O)[C@H](O)[C@H]6O)nn5)nn4)(COCc4cn(CCn5cc(CO[C@@H]6O[C@H](CO)[C@H](O)[C@H](O)[C@H]6O)nn5)nn4)COCc4cn(CCn5cc(CO[C@@H]6O[C@H](CO)[C@H](O)[C@H](O)[C@H]6O)nn5)nn4)nn3)nn2)[C@H](O)[C@@H](O)[C@H]1O [Compound 13]	~23%
COC(=O)c1cc(OCc2cn(CCn3cc(CO[C@@H]4O[C@H](CO)[C@H](O)[C@H](O)[C@H]4O)nn3)nn2)c(OCc2cn(CCn3cc(CO[C@@H]4O[C@H](CO)[C@H](O)[C@H](O)[C@H]4O)nn3)nn2)c(OCc2cn(CCn3cc(CO[C@@H]4O[C@H](CO)[C@H](O)[C@H](O)[C@H]4O)nn3)nn2)c1 [Compound 10]	approximately 22%
